Active and inactive are the calls of the source. The rule behind the calls is not given here.

The term IC50 denotes the point on the concentration scale where inhibition reaches its midpoint.

For this test, the target named is Microphthalmia-associated transcription factor (Homo sapiens) (UniProt O75030). The experiment in a line: MITF inhibitors by FRET titration, dose response, biochemical, high throughput (AID 1259375).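 Note: FRET between CFP-tagged and YFP-tagged MITF protein partners.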 The conditions noted are these: FRET biochemical assay, MITF inhibition.
Chain of Microphthalmia-associated transcription factor (Homo sapiens) (O75030 whole entry, looked up): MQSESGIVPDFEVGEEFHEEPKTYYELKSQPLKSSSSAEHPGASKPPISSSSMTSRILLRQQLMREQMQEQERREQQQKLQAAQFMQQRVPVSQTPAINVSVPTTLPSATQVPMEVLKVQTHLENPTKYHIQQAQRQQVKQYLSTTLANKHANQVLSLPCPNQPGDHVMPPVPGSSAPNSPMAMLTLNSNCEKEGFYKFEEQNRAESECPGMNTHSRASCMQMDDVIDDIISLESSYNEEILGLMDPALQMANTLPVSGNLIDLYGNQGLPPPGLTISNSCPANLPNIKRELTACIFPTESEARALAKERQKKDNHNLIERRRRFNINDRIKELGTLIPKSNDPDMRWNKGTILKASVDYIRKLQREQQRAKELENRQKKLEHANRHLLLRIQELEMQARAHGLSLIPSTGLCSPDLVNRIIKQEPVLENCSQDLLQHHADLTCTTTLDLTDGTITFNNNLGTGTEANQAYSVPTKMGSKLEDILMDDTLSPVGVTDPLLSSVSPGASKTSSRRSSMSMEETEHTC

As for `N#C/C(=C\c1ccc(-c2ccccc2C(=O)O)o1)C(=O)NCc1ccco1`, the IC50 is > 6.48 µM (inactive).

For the compound `N#CC1=C(N)n2c(s/c(=C\c3ccco3)c2=O)=C(C#N)C1c1ccco1` (centres undefined), the IC50 was > 6.53 µM (inactive).

Regarding `O=C1N[C@H](Cc2ccc(O)cc2)C(=O)N2CCN(C(=O)NC3CCCCC3)C[C@H]12`, the IC50 was > 6.48 µM (inactive).

In the case of `CN=C1SC(CC(=O)Nc2cccc(C(=O)O)c2)C(=O)N1C` (centres undefined), the IC50 was > 6.48 µM (inactive).

For the compound `CN(N=O)c1cc(O)ccc1O`, the IC50 is > 6.48 µM (inactive).

Turning to `O=C(O)c1cc2ncc(-c3n[nH]c(-c4cnc5cc(C(=O)O)nn5c4)c3[N+](=O)[O-])cn2n1`, the IC50 is > 6.48 µM (inactive).

As to `Cc1ccc2[nH]c(=O)c(=O)[nH]c2c1`, the IC50 was > 12.1 µM (inactive).

With `c1ccc2c(c1)OCC(c1nc3c(-c4ccncc4)cncc3[nH]1)O2` (centres undefined), the IC50 was > 6.48 µM (inactive).

`Cc1ccc(N2C(=O)C3C(C2=O)C2(CO)C=CC3(C)O2)cc1[N+](=O)[O-]` (centres undefined): the IC50 was > 6.48 µM (inactive).

Consider `Oc1ccc(CCNc2cc(-c3cccs3)ncn2)cc1`, for which the IC50 is > 6.7 µM (inactive).

As for `Cc1ccc(NC(=O)COC(=O)CCC(=O)Nc2sc3c(c2C(N)=O)CCC3)cc1F`, the IC50 is > 6.95 µM (inactive).

With `C=CCc1cc(Cl)ccc1OCCOCCNCCOC`, the IC50 is > 6.48 µM (inactive).

Consider `O=C(O)c1cc(C(=O)O)cc(-c2ccc(/C=N\n3cnnc3)o2)c1`, for which the IC50 is > 6.48 µM (inactive).

Regarding `O=C1N[C@@H](COCc2ccccc2)C(=O)N2CCN(C(=O)NC3CCCCC3)C[C@H]12`, the IC50 was > 6.48 µM (inactive).

Take `COc1ccc2c(c1)CC(C(=O)Nc1ccc(-c3cn[nH]c3)cc1OCc1ccccc1)CO2` (centres undefined): the IC50 is > 6.48 µM (inactive).

Consider `CCc1ccc(CN2CCN(C(C)C)CC2)cc1`, for which the IC50 was > 6.89 µM (inactive).

Regarding `COc1cc2cc3c(N)c(C(=O)Nc4sc(C)c(C)c4C#N)sc3nc2cc1OC`, the IC50 is > 6.48 µM (inactive).

For `COC(=O)CSc1nnc(-c2cnccn2)n1C`, the IC50 was > 6.48 µM (inactive).

In the case of `N#Cc1c(-c2ccco2)cc(-c2ccco2)nc1N`, the IC50 is > 6.48 µM (inactive).

As to `COc1ccccc1C1(NC(=O)CCCCC2SCC3NC(=O)NC32)CCCC1` (centres undefined), the IC50 was > 6.48 µM (inactive).

Take `CC(C)(C)c1ccc(OCCn2cncn2)c(Cl)c1`: the IC50 was > 6.48 µM (inactive).

On to `CN(C)[C@@H]1C(=O)C(C(=O)NCN2CCCC2)=C(O)[C@@]2(O)C(=O)C3=C(O)c4c(O)cccc4[C@@](C)(O)C3CC12` (some centres undefined), for which the IC50 was > 6.48 µM (inactive).

With `CCC(C)NCCOc1cccc(Br)c1` (centres undefined), the IC50 was > 6.48 µM (inactive).

Consider `Cc1cncc2c(S(=O)(=O)N3CC[C@@H](NC(=O)C(O)c4ccc(F)cc4F)C3)cccc12` (some centres undefined), for which the IC50 was > 6.48 µM (inactive).

On to `CCOC(=O)C1C2NC(=S)N(c3ccccc3)C1(C)Oc1cc(OC)ccc12` (centres undefined), for which the IC50 was > 6.4 µM (inactive).

Consider `Cc1ccc(C)n1C(Cc1c[nH]c2ccccc12)C(=O)O` (centres undefined), for which the IC50 is > 6.48 µM (inactive).

Consider `COc1ccc2nc(-c3ccco3)c(-c3ccco3)nc2c1`, for which the IC50 entry was “inactive”.

With `O=C(O)c1cccc2c1C(=O)N(c1ccccc1)C2`, the IC50 is > 6.31 µM (inactive).

As for `COc1cc(C=Nc2ccc(N(C)C)cc2)cc(I)c1O`, the IC50 was > 6.48 µM (inactive).

Consider `C[C@H]1C(=O)N2CCN(C(=O)NC3CCCCC3)C[C@@H]2C(=O)N1C`, for which the IC50 is > 6.48 µM (inactive).

Regarding `CCN1CCc2c(sc(NC(=S)NC(=O)/C=C/c3ccco3)c2C(N)=O)C1`, the IC50 is > 6.48 µM (inactive).

As for `O=C(CN1C(=O)NC2(CCCCCC2)C1=O)NC(=O)NCc1ccco1`, the IC50 is > 7.16 µM (inactive).

On to `O=C(NCCc1ccc(O)cc1)c1cccc(-c2cccs2)c1`, for which the IC50 was > 6.26 µM (inactive).

Regarding `CCN(CC)C(=S)NC(=O)/C=C/c1ccco1`, the IC50 was > 6.48 µM (inactive).

The values are drawn from PubChem BioAssay AID1259375 (The Scripps Research Institute Molecular Screening Center, 2018).
